# Measured values reported in PubChem BioAssay (NCI).
#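 Tested at 5 concentrations; 48 h exposure; 96-well plates; endpoints linearly interpolated, else capped at highest concentration. At the TGI there is no net growth.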
# Key:
# Experiment in all cases: DTP human tumour cell line panel, 48 h
# [1] = test system: 786-0 renal
# [2] = test system: A498 renal
# [3] = test system: A549 NSCLC
# [4] = test system: ACHN renal
# [5] = test system: BT-549 breast
# [6] = test system: COLO 205 colon
# [7] = test system: DU-145 prostate
# [8] = test system: EKVX NSCLC
# [9] = test system: HCC-2998 colon
# [10] = test system: HCT-116 colon
# [11] = test system: HCT-15 colon
# [12] = test system: HL-60(TB) leukemia
# [13] = test system: HOP-62 NSCLC
# [14] = test system: HOP-92 NSCLC
# [15] = test system: HS 578T breast
# [16] = test system: HT29 colon
# [17] = test system: IGROV1 ovarian
# [18] = test system: K-562 leukemia
# [19] = test system: KM12 colon
# [20] = test system: M14 melanoma
# [21] = test system: MALME-3M melanoma
# [22] = test system: MCF7 breast
# [23] = test system: MDA-MB-231 breast
# [24] = test system: MDA-MB-435
# [25] = test system: MDA-N
# [26] = test system: MOLT-4 leukemia
# [27] = test system: NCI-H226 lung
# [28] = test system: NCI-H23 lung
# [29] = test system: NCI-H460 lung
# [30] = test system: NCI-H522 lung
# [31] = test system: NCI/ADR-RES ovarian
# [32] = test system: OVCAR-3 ovarian
# [33] = test system: OVCAR-4 ovarian
# [34] = test system: OVCAR-5 ovarian
# [35] = test system: OVCAR-8 ovarian
# [36] = test system: PC-3 prostate
# [37] = test system: RPMI-8226 leukemia
# [38] = test system: RXF 393 renal
# [39] = test system: SF-268 CNS
# [40] = test system: SF-295 CNS
# [41] = test system: SF-539 CNS
# [42] = test system: SK-MEL-2 melanoma
# [43] = test system: SK-MEL-28 melanoma
# [44] = test system: SK-MEL-5 melanoma
# [45] = test system: SK-OV-3 ovarian
# [46] = test system: SN12C renal
# [47] = test system: SNB-19 CNS
# [48] = test system: SNB-75 CNS
# [49] = test system: SR leukemia
# [50] = test system: SW-620 colon
# [51] = test system: T-47D breast
# [52] = test system: TK-10 renal
# [53] = test system: U251 CNS
# [54] = test system: UACC-257 melanoma
# [55] = test system: UACC-62 melanoma
# [56] = test system: UO-31 renal
smiles,measurement,setting,value
O=C1C(Cl)C(c2cc3cc(Br)ccc3nc2Cl)N1c1ccc(F)c(Cl)c1 (stereo unspecified),TGI,[1],2.25 µM
same,TGI,[2],15.1 µM
same,TGI,[3],43.5 µM
same,TGI,[4],24.2 µM
same,TGI,[5],25.9 µM
same,TGI,[6],22.5 µM
same,TGI,[7],22.1 µM
same,TGI,[8],3.62 µM
same,TGI,[9],21.7 µM
same,TGI,[10],18.9 µM
same,TGI,[11],27.6 µM
same,TGI,[12],18.6 µM
same,TGI,[13],6.39 µM
same,TGI,[14],2.72 µM
same,TGI,[15],75 µM
same,TGI,[16],26.5 µM
same,TGI,[17],2.14 µM
same,TGI,[18],17 µM
same,TGI,[19],7.77 µM
same,TGI,[20],21.8 µM
same,TGI,[21],22.8 µM
same,TGI,[22],20.1 µM
same,TGI,[23],24.8 µM
same,TGI,[24],17.7 µM
same,TGI,[25],22.3 µM
same,TGI,[26],4.74 µM
same,TGI,[27],40.2 µM
same,TGI,[28],19 µM
same,TGI,[29],24.4 µM
same,TGI,[30],0.719 µM
same,TGI,[31],29.8 µM
same,TGI,[32],12.8 µM
same,TGI,[33],4.96 µM
same,TGI,[34],24.8 µM
same,TGI,[35],54 µM
same,TGI,[36],34.2 µM
same,TGI,[37],5.23 µM
same,TGI,[38],17.3 µM
same,TGI,[39],14.2 µM
same,TGI,[40],23.4 µM
same,TGI,[41],3.66 µM
same,TGI,[42],23.5 µM
same,TGI,[43],34.5 µM
same,TGI,[44],19.8 µM
same,TGI,[45],26.9 µM
same,TGI,[46],20.5 µM
same,TGI,[47],23.1 µM
same,TGI,[48],21.4 µM
same,TGI,[49],2.61 µM
same,TGI,[50],33 µM
same,TGI,[51],27.4 µM
same,TGI,[52],17 µM
same,TGI,[53],12.5 µM
same,TGI,[54],25.7 µM
same,TGI,[55],21.2 µM
same,TGI,[56],0.29 µM
